Data as given in patent US5925667A, “Pyrrolidine derivative, anti-ulcer drug, and antibacterial drug” (Shiseido Co., Ltd., priority 1997, dated 1999).

Key:
stress ulcer = assay: WIS: Restraint and Water Immersion Stress-Induced Ulcer Inhibition Test; assay type: in vivo, male Crj:SD or Slc:SD rats; conditions: rat; for inhibition in vivo at 100 mg/kg: 100 mg/kg oral, 7 h water immersion stress, read-out: ulcer formation inhibitory rate (WIS)
Experimental: WIS: Restraint and Water Immersion Stress-Induced Ulcer Inhibition Test
The degree of inhibition of the stress ulcer formation is tested.
Male Crj:SD or Slc:SD rats (6 to 7-week-old) were fasted overnight, but allowed free access to water. Each group has 5 to 8 of these rats. The sample compound was dissolved or suspended in an aqueous solution of 0.3% sodium carboxymethylcellulose or 0.05% Tween 80 and then was orally administered (100 mg/10 ml/kg. To a control group, the vehicle was administered. 10 minutes later, the rats were placed in a stress cage and immersed to the level of xipfoid process in a water bath (21° C.) for 7 hours. At the end of the stress, the rats were sacrificed by inhalation of ether or carbon dioxide. Then, the stomach of each was removed, inflated by injecting 10 ml of 5% formalin neutral buffer solution, and immersed in 1% formalin neutral buffer solution for 30 minutes or more to be fixed. The stomach was incised along the greater curvature and then the length of each erosion in the glandular portion was determined under dissecting microscope. The sum of the length of erosions per stomach was defined as ulcer index (UI).
The effect obtained when 100 mg/kg of the sample compound had been administered was expressed as ulcer formation inhibitory rate (%) as follows:
ulcer formation inhibitory rate (%)=(1-(UI in sample group/UI in control group))×100

[1] = test system: isolated gastric fundic gland; assay: CAP: Acid Secretion Inhibition Test In Vitro ([14C]-aminopyrine uptake test); assay type: cell-based, male Japanese White rabbit; conditions: Oryctolagus cuniculus; final concentration 10^-5 M, histamine 10^-5 M; read-out: acid secretion inhibitory rate (CAP)
Experimental: CAP: Acid Secretion Inhibition Test In Vitro
The acid secretion inhibitory activity in a cell level is studied. It can also be used for studying the mechanism of the effect.
ii-a) Preparation of isolated gastric fundus gland suspension
First, an isolated gastric fundic gland sample was prepared. Namely, a male Japanese White rabbit (2.5 to 3 kg) was anesthetized to death with Nembutal™ and then the abdomen was incised. Immediately thereafter, the stomach was removed and, after its pyloric and cardiac antrum were severed, incised along its greater curvature into two sheets. The gastric contents adhering to the mucosal surface was washed out with ice-cooled PBS (-) and then carefully washed therein. The gastric wall was spread on a cork board with its mucosal surface facing up and the feed and mucus thereon were completely removed with sterile gauze. The mucosa was separated therefrom by a spatula and then collected in ice-cooled PBS (-). After being washed twice with PBS (-), the mucosa was minced into 2-3 mm^3 pieces by scissors. These pieces were further washed twice with a nutrient solution. The nutrient solution comprises 132.4 mM of NaCl, 5.4 mM of KCl, 5 mM of Na2 HPO4.12H2 O, 1 mM of NaH2 PO4.2H2,
1.2 mM of MgSO4, 1 mM of CaCl2, 25 mM of HEPES, 2 mg/ml of glucose, and 1 mg/ml of BSA.
Into 70 ml of the nutrient solution containing 1 mg/ml of collagenase, minced mucosal pieces were dispersed and intensely stirred in a conical flask with a stirrer at 37° C. for 40 to 60 minutes. During this period, 100% O2 was sprayed on the nutrient solution surface and the pH was appropriately measured such that it was immediately adjusted to pH 7.4, when the value was therebelow, with a base. The nutrient solution was added to the reaction solution so as to attain the total amount of about 200 ml. After being filtered through a mesh, the suspension was divisionally introduced into 50 ml centrifuge tubes and left for 15 minutes such that gastric fundic gland was deposited. The supernatant was repeatedly removed by an aspirator, dispersed in the nutrient solution, and then left such that the gastric fundic gland was washed three times. At this time, without using a pipette, the suspension was alternately introduced into two centrifuge tubes so as to effect dispersion. The number of cells was counted under microscope and adjusted to 1.6×10^6 cells/ml.
ii-b) [^14 C]-aminopyrine uptake test.
Then, [^14 C]-aminopyrine uptake test was performed. After an Eppendorf tube was weighed, 10 μl (final concentration: 10^-5 M) of histamine dissolved in the above-mentioned nutrient solution, 10 μl (final concentration: 10^-5 M) of the test compound dissolved in DMSO, and 10 μl (final concentration: 0.05 μCi/ml) of [^14 C]-aminopyrine diluted with the nutrient solution were introduced therein and then 970 μl of the isolated gastric fundic gland suspension prepared above was added thereto. Subsequently, this mixture was shaken at 37° C. for 40 minutes at 125 cycles/minute. After being centrifuged for 30 seconds, 200 μl of its supernatant was collected into a mini-vial, while the rest was removed by an aspirator. The gland pellet was completely dried as the tube with its lid being opened was kept for one night in a drying oven at 80° C. and then the lid was closed and the weight was determined at room temperature. Then 100 μl of 1N KOH was added thereto and the tube with its lid being closed was treated at 60° C. for 1 to 2 hours so as to dissolve the pellet. Then, the contents thereof were transferred to a mini-vial. Into the mini-vial containing the supernatant or gland pellet, 4 ml of Atomlite™ was added and then the radioactivity was measured by a liquid scintillation counter. Here, after the radioactivity of the gland pellet was corrected by using a sample in which 20 mM of NaSCN was added so as to cancel the hydrogen ion concentration gradient, the integration ratio of aminopyrine specifically trapped by the gland pellet was calculated. […]

[2] = MTT: Cell Damaging and Protecting Effect Test; assay type: cell-based, male Japanese White rabbit; conditions: rabbit, gastric mucosa cells, final concentration 10^-4 M, smaller value is better, read-out: cell damaging rate (MTT)
Source text: MTT: Cell Damaging and Protecting Effect Test
It is confirmed that there is no toxicity in cell level. Those having a toxicity in cell level are inappropriate as an anti-ulcer drug.
A male Japanese White rabbit (2.5 to 3 kg) was anesthetized to death by Nembutal™ and, immediately thereafter, its stomach was removed. The greater curvature of the stomach was incised so as to remove the stomach contents therefrom. After the mucosal surface was washed with HBSS (Hanks' Balanced Salt Solution), the stomach in ice-cooled HBSS was transferred to a laboratory. Then, after the pyloric antrum was removed, the gastric corpus mucosa was separated by a spatula and then minced into 2 to 3 mm^3 pieces in BME (Basal Medium Eagle). Thereafer, these pieces were shaken at 120 to 130 cycles/minute for 15 minutes at 37° C. in BME 60 ml containing 280 U/ml of dispase and 30 to 50 U/ml of collagenase. Here, the concentration of collagenase was appropriately changed for each lot in view of the state of cells. The pieces were washed twice with EBSS (Earle's Balanced Salt Solution) containing 1 mM of EDTA and then shaken in MEM (Minimum Essential Medium) containing 1 mM of EDTA at 37° C. for 5 minutes. Subsequently, they were shaken in the dispase and collagenase having the same concentrations as those mentioned above for 15 minutes so as to remove the supernatant and then further shaken at 37° C. for 50 to 60 minutes at 120 to 130 cycles/minute. Then, after being washed twice with HBSS, Ham F12 containing 2% of Ultrocer G™ was used to attain the concentration of 1×10^6 cells/ml. Thus formed suspension was dispensed in each well of a 96-well plate by 200 μl. The plate was incubated in the atmosphere composed of 5% CO2 and 95% air at 37° C. for three days so as to attain a confluent state and then subjected to MTT assay.
The sample compound was dissolved in DMSO so as to attain a concentration of 10^-2 M and then diluted with HBSS containing 2% of Ultrocer G™ so as to attain a final concentration of 10^-4 M. To each group, which 8 wells were used for, 10 μl of MTT reagent was added immediately after 100 μl of the medium in each well was exchanged for same volume of the resulting solution of the sample compound. After being incubated in an atmosphere composed of 5% CO2 and 95% air at 37° C. for 4 hours, thus formed solution was centrifuged and then its supernatant was discarded. Subsequently, 100 μl of 100% ethanol was added to the residue so as to dissolve MTT formazan. Then, the absorbance (OD: 570 to 630) was measured by a microplate reader. This method utilizes a phenomenon in which MTT is changed to MTT formazan only by mitochondria of living cells so as to change color.
The cell damaging or cell protecting effect of the sample compound at the final concentration of 10^-4 M was expressed as cell damaging rate (%) as follows:
cell damaging rate (%)=(1-(absorbance in sample group/absorbance in control group))×100
Accordingly, the smaller value is better in the cell damaging rate.

Slc:ICR mice = test system: Slc:ICR mice; parameters: species or system male Slc:ICR mice; conditions: mouse, in vivo
Experimental: AT: Single Dose Toxicity Pretest
Male Slc:ICR mice (5-week-old) were used. Each group has 3 to 5 mice and each mouse was fasted, but allowed free access to water, for 4 to 5 hours from 9 a.m. in the test day. Then, 2,000 mg/10 ml/kg of the sample compound dissolved or suspended in an aqueous solution of 0.5% sodium carboxymethyl cellulose was orally administered thereto. To a control, only the vehicle was administered. […] The body weight was measured before and after the fasting as well as at the same time everyday. The dead animals were immediately subjected to autopsy and their organs were observed by naked eyes. Also, the living animals were sacrificed with ether or carbon dioxide one week after the administration and then their organs were observed by naked eyes.
The toxicity at the single dose of 2,000 mg/kg of the sample compound was expressed as being classified into 5 levels.
5: Mortality rate is 0%; no toxicity is found at all both in behavior and organs.
4: Mortality rate is 0%; while no toxicity is found in organs, slight toxicity is observed in behavior or body weight increase.
3: While there is a dead animal (though not all the animals are dead), no toxicity is found in organs.
2: Regardless of whether there is a dead animal or not, toxicity is found in organs.
1: All the animals are dead.

Row | SMILES | inhibition in vivo at 100 mg/kg (stress ulcer) [%] | inhibition at 10 µM [1] [%] | cytotoxicity at 4 h, 100 µM [2] [%] | toxicity at single dose (AT), 5 levels (Slc:ICR mice) | anti-ulcer effect (in words) (stress ulcer; in vivo)
1 | CCN1CCCC1CNC(=O)c1ccccc1OC/C=C(\C)CCC=C(C)C (stereo not drawn) [Example 2, 1-ethyl-2-(2-geranyloxybenzoylaminomethyl)pyrrolidine] | 85 | 99.7 | 19 |  | 
2 | CCN1CCCC1CNC(=O)c1ccc(OCC=C(C)C)cc1 (stereo not drawn) [Example 3, 1-ethyl-2-(4-prenyloxybenzoylaminomethyl)pyrrolidine] | 86 | 61 | -14 |  | 
3 | CCN1CCCC1CNC(=O)c1ccc(OC/C=C(/C)CCC=C(C)C)cc1 (stereo not drawn) [Example 4, 1-ethyl-2-(4-neryloxybenzoylaminomethyl)pyrrolidine] | 68 | 100 |  | 5 | 
4 | CCN1CCCC1CNC(=O)c1ccc(OCC=C(C)C)cc1OCC=C(C)C (stereo not drawn) [Example 5, 1-ethyl-2-(2,4-diprenyloxybenzoylaminomethyl)pyrrolidine] | 70 | 100 | 9 |  | 
5 | CCN1CCCC1CNC(=O)c1cc(OCC=C(C)C)cc(OCC=C(C)C)c1 (stereo not drawn) [Example 8, 1-ethyl-2-(3,5-diprenyloxybenzoylaminomethyl)pyrrolidine] | 81 | 100 |  | 5 | 
6 | CCN1CCCC1CNC(=O)c1cc(OC/C=C(\C)CCC=C(C)C)cc(OC/C=C(\C)CCC=C(C)C)c1 (stereo not drawn) [Example 12, 1-ethyl-2-(3,5-digeranyloxybenzoylaminomethyl)pyrrolidine] | 82 | 100 | 29 |  | 
7 | CCN1CCCC1CNC(=O)c1ccccc1SC/C=C(\C)CCC=C(C)C (stereo not drawn) [Example 14, 1-ethyl-2-(2-geranylthiobenzoylaminomethyl)pyrrolidine] | 81 | 98.1 | 27 |  | the effect has been maintained
8 | CCN1CCCC1CNC(=O)c1ccc(OC/C=C(\C)CCC=C(C)C)c(OC)c1 (stereo not drawn) [Example 16, 1-ethyl-2-(4-geranyloxy-3-methoxybenzoylaminomethyl)pyrrolidine] | 72 | 99.8 |  | 4 | 
9 | CCN1CCCC1CNC(=O)c1cccc(OC)c1OC/C=C(\C)CCC=C(C)C (stereo not drawn) [Example 17, 1-ethyl-2-(2-geranyloxy-3-methoxybenzoylaminomethyl)pyrrolidine] | 82 | 100 | 22 |  | 
10 | CCN1CCCC1CNC(=O)c1cc(OC)c(OC)c(OCC=C(C)C)c1 (stereo not drawn) [Example 23, 1-ethyl-2-(3,4-dimethoxy-5-prenyloxybenzoylaminomethyl)pyrrolidine] | 79 | 73.1 | -3 |  | 
11 | CCN1CCCC1CNC(=O)c1ccc(OC/C=C(\C)CCC=C(C)C)nc1 (stereo not drawn) [Example 27, 1-ethyl-2-(6-gearnyloxynicotinoylaminomethyl)pyrrolidine] | 88 | 81 |  |  | 
